Laboratory results from PubChem BioAssay (NCI).
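Results reflect a 48-hour exposure of cells in 96-well plates to compound at five concentrations. At the GI50, growth is halved. TGI: concentration producing complete growth inhibition.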

Key:
Assay in all cases: NCI anticancer screen, dose series, 48 h
MALME-3M melanoma = system: MALME-3M melanoma
A498 renal = system: A498 renal
SR leukemia = system: SR leukemia
UACC-257 melanoma = system: UACC-257 melanoma
SF-268 CNS = system: SF-268 CNS
OVCAR-3 ovarian = system: OVCAR-3 ovarian
HOP-62 NSCLC = system: HOP-62 NSCLC
HT29 colon = system: HT29 colon
K-562 leukemia = system: K-562 leukemia
A549 NSCLC = system: A549 NSCLC
MDA-MB-231 breast = system: MDA-MB-231 breast
EKVX NSCLC = system: EKVX NSCLC
KM12 colon = system: KM12 colon
LOX IMVI melanoma = system: LOX IMVI melanoma
SNB-19 CNS = system: SNB-19 CNS
U251 CNS = system: U251 CNS
NCI-H460 lung = system: NCI-H460 lung
CCRF-CEM leukemia = system: CCRF-CEM leukemia
NCI-H23 lung = system: NCI-H23 lung
BT-549 breast = system: BT-549 breast
OVCAR-8 ovarian = system: OVCAR-8 ovarian
NCI-H226 lung = system: NCI-H226 lung
UACC-62 melanoma = system: UACC-62 melanoma
SF-539 CNS = system: SF-539 CNS
PC-3 prostate = system: PC-3 prostate
OVCAR-4 ovarian = system: OVCAR-4 ovarian
MDA-MB-435 = system: MDA-MB-435
DU-145 prostate = system: DU-145 prostate
SK-MEL-5 melanoma = system: SK-MEL-5 melanoma

CC1=C[C@H]2c3c(c(O)c(O)c4oc(-c5ccccc5)cc(=O)c34)[C@H](c3cc(O)c(O)c4oc(-c5ccccc5)cc(=O)c34)[C@H]2C(C)(C)C1
GI50 (MALME-3M melanoma): 1570 nM
TGI (MALME-3M melanoma): 7760 nM
GI50 (A498 renal): 659 nM
TGI (A498 renal): 3720 nM
GI50 (SR leukemia): 457 nM
TGI (SR leukemia): > 75000 nM
GI50 (UACC-257 melanoma): 1720 nM
TGI (UACC-257 melanoma): 9470 nM
GI50 (SF-268 CNS): 541 nM
TGI (SF-268 CNS): 17000 nM
GI50 (OVCAR-3 ovarian): 1460 nM
TGI (OVCAR-3 ovarian): 12000 nM
GI50 (HOP-62 NSCLC): 760 nM
TGI (HOP-62 NSCLC): 12900 nM
GI50 (HT29 colon): 888 nM
TGI (HT29 colon): > 75000 nM
GI50 (K-562 leukemia): 294 nM
TGI (K-562 leukemia): > 75000 nM
GI50 (A549 NSCLC): 290 nM
TGI (A549 NSCLC): 13800 nM
GI50 (MDA-MB-231 breast): 2710 nM
TGI (MDA-MB-231 breast): 17700 nM
GI50 (EKVX NSCLC): 1140 nM
TGI (EKVX NSCLC): 11400 nM
GI50 (KM12 colon): 1410 nM
TGI (KM12 colon): 8960 nM
GI50 (LOX IMVI melanoma): 395 nM
TGI (LOX IMVI melanoma): 1330 nM
GI50 (SNB-19 CNS): 557 nM
TGI (SNB-19 CNS): 17000 nM
GI50 (U251 CNS): 415 nM
TGI (U251 CNS): 18700 nM
GI50 (NCI-H460 lung): 275 nM
TGI (NCI-H460 lung): 1830 nM
GI50 (CCRF-CEM leukemia): 670 nM
TGI (CCRF-CEM leukemia): > 75000 nM
GI50 (NCI-H23 lung): 375 nM
TGI (NCI-H23 lung): 2560 nM
GI50 (BT-549 breast): 1580 nM
TGI (BT-549 breast): 8590 nM
GI50 (OVCAR-8 ovarian): 680 nM
TGI (OVCAR-8 ovarian): > 75000 nM
GI50 (NCI-H226 lung): 1360 nM
TGI (NCI-H226 lung): 3590 nM
GI50 (UACC-62 melanoma): 516 nM
TGI (UACC-62 melanoma): 1970 nM
GI50 (SF-539 CNS): 364 nM
TGI (SF-539 CNS): 7520 nM
GI50 (PC-3 prostate): 1440 nM
TGI (PC-3 prostate): 14800 nM
GI50 (OVCAR-4 ovarian): 1560 nM
TGI (OVCAR-4 ovarian): 9550 nM
GI50 (MDA-MB-435): 435 nM
TGI (MDA-MB-435): 5740 nM
GI50 (DU-145 prostate): 408 nM
TGI (DU-145 prostate): > 75000 nM
GI50 (SK-MEL-5 melanoma): 974 nM
